Assay results reported in ChEMBL document CHEMBL3132769, “Fragment growing to retain or alter the selectivity of anchored kinase hinge-binding fragments” (Medchemcomm, 2014).

Tests used:
[1] = target: T1, Serine/threonine-protein kinase Sgk2 (Homo sapiens) (UniProt Q9HBY8); assay: Inhibition of human full length SGK2 expressed in baculovirus assessed as substrate phosphorylation using fluorescence-labelled peptides as substrate at 8 uM after 90 mins by microfluidic peptide phosphorylation assay
T1 sequence (whole entry): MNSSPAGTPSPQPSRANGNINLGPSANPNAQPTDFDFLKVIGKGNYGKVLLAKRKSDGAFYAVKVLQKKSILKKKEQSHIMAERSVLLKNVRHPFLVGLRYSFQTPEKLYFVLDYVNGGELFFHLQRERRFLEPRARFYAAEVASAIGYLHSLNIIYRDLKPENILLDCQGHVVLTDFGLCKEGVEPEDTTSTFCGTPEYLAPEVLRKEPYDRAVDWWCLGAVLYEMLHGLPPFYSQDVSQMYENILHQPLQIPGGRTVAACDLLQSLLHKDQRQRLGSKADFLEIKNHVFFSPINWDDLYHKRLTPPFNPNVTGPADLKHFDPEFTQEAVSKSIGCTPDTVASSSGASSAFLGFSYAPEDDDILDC

[2] = target: Cyclin-dependent kinase 2 (Homo sapiens) (UniProt P24941); assay: Inhibition of human full length CDK2 expressed in baculovirus assessed as substrate phosphorylation using fluorescence-labelled peptides as substrate at 0.06 uM after 90 mins by microfluidic peptide phosphorylation assay
[3] = target: Serine/threonine-protein kinase Chk2 (Homo sapiens) (UniProt O96017); assay: Inhibition of human full length CHK2 expressed in baculovirus assessed as substrate phosphorylation using fluorescence-labelled peptides as substrate at 0.06 uM after 90 mins by microfluidic peptide phosphorylation assay
Chain of Serine/threonine-protein kinase Chk2 (Homo sapiens) (O96017 whole entry): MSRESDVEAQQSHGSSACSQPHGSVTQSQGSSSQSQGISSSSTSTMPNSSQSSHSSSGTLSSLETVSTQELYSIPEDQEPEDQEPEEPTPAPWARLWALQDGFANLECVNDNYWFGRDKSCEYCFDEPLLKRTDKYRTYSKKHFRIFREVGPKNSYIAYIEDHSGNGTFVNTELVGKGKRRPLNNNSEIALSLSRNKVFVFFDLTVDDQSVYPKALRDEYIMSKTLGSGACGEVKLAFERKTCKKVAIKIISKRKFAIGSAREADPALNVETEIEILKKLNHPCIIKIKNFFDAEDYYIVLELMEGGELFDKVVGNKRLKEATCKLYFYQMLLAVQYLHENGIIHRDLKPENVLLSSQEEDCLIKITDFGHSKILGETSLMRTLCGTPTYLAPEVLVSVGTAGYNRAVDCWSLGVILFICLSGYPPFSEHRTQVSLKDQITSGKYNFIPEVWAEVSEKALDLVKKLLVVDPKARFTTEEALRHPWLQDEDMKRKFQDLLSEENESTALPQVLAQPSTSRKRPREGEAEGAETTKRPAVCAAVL

[4] = target: Cyclin-dependent kinase 2 (Homo sapiens) (UniProt P24941); assay: Inhibition of human full length CDK2 expressed in baculovirus assessed as substrate phosphorylation using fluorescence-labelled peptides as substrate at 0.2 uM after 90 mins by microfluidic peptide phosphorylation assay
Homo sapiens = species: Homo sapiens; assay: Inhibition of human full length PKA expressed in baculovirus assessed as substrate phosphorylation using fluorescence-labelled peptides as substrate at 2 uM after 90 mins by microfluidic peptide phosphorylation assay
[5] = target: T2, Serine/threonine-protein kinase DCLK2 (Homo sapiens) (UniProt Q8N568); assay: Inhibition of human full length DCAMKL2 expressed in baculovirus assessed as substrate phosphorylation using fluorescence-labelled peptides as substrate at 95 uM after 90 mins by microfluidic peptide phosphorylation assay
T2 sequence (whole entry): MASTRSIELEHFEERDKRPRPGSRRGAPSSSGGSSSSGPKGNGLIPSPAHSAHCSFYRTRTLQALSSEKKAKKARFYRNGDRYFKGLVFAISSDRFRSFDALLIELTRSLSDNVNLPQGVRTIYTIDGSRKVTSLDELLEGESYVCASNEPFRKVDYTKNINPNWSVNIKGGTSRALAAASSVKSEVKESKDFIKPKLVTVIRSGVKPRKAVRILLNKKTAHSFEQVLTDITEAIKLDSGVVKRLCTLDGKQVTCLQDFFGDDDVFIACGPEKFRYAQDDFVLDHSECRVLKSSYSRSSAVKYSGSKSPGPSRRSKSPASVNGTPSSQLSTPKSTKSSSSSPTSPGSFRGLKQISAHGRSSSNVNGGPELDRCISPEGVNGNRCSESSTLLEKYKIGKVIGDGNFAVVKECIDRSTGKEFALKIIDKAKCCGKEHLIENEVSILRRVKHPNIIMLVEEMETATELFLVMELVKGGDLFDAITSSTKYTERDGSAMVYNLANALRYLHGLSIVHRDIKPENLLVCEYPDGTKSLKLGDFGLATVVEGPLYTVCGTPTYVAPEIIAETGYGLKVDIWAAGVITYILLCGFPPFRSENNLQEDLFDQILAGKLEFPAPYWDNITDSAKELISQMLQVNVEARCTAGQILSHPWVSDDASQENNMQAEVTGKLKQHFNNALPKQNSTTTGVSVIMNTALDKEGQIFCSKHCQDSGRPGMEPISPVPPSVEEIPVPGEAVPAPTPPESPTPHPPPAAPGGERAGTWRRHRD

[6] = target: Mitogen-activated protein kinase 1 (Homo sapiens) (UniProt P28482); assay: Inhibition of human full length ERK2 expressed in Escherichia coli cell assessed as substrate phosphorylation using fluorescence-labelled peptides as substrate at 1000 uM after 90 mins by microfluidic peptide phosphorylation assay
Chain of Mitogen-activated protein kinase 1 (Homo sapiens) (P28482 whole entry): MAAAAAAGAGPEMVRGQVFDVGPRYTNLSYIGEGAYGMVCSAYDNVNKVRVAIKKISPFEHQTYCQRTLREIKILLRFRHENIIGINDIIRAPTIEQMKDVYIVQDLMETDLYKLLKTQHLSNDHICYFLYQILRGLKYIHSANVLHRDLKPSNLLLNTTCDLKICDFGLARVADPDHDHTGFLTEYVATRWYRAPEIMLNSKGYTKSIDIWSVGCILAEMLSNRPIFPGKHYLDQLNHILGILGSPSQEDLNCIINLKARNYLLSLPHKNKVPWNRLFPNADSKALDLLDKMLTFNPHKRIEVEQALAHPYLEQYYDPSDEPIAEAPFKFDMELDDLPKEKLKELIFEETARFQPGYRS

[7] = target: T3, Serine/threonine-protein kinase D2 (Homo sapiens) (UniProt Q9BZL6); assay: Inhibition of human full length PKD2 expressed in baculovirus assessed as substrate phosphorylation using fluorescence-labelled peptides as substrate at 1000 uM after 90 mins by microfluidic peptide phosphorylation assay
T3 sequence (whole entry): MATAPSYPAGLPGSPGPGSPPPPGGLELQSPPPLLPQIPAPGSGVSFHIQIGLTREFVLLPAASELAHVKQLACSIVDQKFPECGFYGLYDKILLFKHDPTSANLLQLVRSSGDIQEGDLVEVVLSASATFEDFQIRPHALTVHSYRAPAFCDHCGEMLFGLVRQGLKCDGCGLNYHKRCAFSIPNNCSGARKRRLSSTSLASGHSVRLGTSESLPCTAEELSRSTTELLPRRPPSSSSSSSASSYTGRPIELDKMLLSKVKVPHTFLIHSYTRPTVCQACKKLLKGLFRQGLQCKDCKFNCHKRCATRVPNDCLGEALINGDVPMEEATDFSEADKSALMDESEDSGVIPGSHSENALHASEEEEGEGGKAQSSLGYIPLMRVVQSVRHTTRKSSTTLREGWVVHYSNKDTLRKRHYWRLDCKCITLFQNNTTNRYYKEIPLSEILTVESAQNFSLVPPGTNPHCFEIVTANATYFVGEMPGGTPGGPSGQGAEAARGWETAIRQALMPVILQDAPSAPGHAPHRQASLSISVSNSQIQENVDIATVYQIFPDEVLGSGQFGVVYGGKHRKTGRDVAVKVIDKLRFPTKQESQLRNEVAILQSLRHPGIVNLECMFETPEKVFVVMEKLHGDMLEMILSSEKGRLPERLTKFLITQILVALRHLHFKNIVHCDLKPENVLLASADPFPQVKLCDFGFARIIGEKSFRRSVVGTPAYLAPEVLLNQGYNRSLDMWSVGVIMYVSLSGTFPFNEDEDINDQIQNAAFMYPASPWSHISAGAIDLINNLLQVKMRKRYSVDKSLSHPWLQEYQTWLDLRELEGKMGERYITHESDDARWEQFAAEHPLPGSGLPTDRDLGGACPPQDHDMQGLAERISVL

With NCC1CCN(c2ncnc3[nH]ccc23)CC1 the inhibition [1] was 69%.
NC1(Cc2ccc(Cl)cc2)CCN(c2ncnc3[nH]ccc23)CC1 gave an inhibition [2] of 1% and an inhibition [3] of 0%.
For Clc1ccc(C2(c3ccc(-c4ncnc5[nH]cnc45)cc3)CCNCC2)cc1, the inhibition [4] was 7.5%.
In the case of NC1CCN(c2ncnc3[nH]ccc23)CC1, the inhibition (Homo sapiens) is reported as 21%.
Compound NCCc1ccc(-c2ncnc3[nH]cnc23)cc1 has an inhibition [5] of 35%.
Compound c1cnc2[nH]ccc2c1 has an inhibition [6] of 23.5% and an inhibition [7] of 49.5%.
